In assay [1] the target is Sigma non-opioid intracellular receptor 1 (Cavia porcellus) (UniProt Q60492). Put plainly: Binding affinity was measured on Sigma receptor type 1 with guinea pig membranes and [3H]- pentazocine as ligand.
In assay [2] the target is Sigma-2 receptor (TMEM97) (Rattus norvegicus). Put plainly: Binding affinity was measured on Sigma receptor type 2 with rat liver membranes and [3H]- DTG as ligand.

As a reminder, the Ki is the dissociation constant of the complex between target and ligand, obtained from inhibition or displacement. The low end stands for tighter binding, the high end for weaker binding.

Sequence of Sigma non-opioid intracellular receptor 1 (Cavia porcellus) (Q60492 whole entry, looked up): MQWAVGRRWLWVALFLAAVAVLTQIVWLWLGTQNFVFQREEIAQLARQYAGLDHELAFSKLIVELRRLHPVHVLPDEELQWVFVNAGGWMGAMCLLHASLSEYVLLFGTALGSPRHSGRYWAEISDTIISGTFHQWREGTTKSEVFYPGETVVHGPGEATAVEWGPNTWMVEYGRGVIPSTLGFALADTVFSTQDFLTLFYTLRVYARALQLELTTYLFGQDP

With `CCN(CC)CCNC(=O)c1cc(I)c(N)cc1OC`, the inhibition constant (Ki) turned out to be 0.484 µM in assay [1] and 21.4 µM in assay [2].
On the same counts, the results for `CCN(CC)CCNC(=O)c1cc(Br)c(N)c(I)c1OC` [4-Amino-5-bromo-N-(2-diethylamino-ethyl)-3-iodo-2-methoxy-benzamide] are 0.278 µM and 2.35 µM.
Consider `CCN(CC)CCNC(=O)c1cc(I)c(NC(C)=O)cc1OC` [4-acetamido-N-(2-(diethylamino)ethyl)-5-iodo-2-methoxybenzamide], for which the Ki in assay [1] came out at 5.19 µM; in assay [2], 115 µM.
On the same counts, the results for `CCN(CC)CCNC(=O)c1ccc(OC)c(I)c1` [N-(2-Diethylamino-ethyl)-3-iodo-4-methoxy-benzamide (IMBA)] are 0.249 µM and 6.52 µM.
In the same order, the values of `CCN(CC)CCNC(=O)c1cc(I)ccc1OC` [N-(2-Diethylamino-ethyl)-5-iodo-2-methoxy-benzamide] are 0.092 µM and 1.02 µM.

(Values after BindingDB's records for doi:10.1021/jm991079p (University of Heidelberg, 2000).)
